Experimental findings from PubChem BioAssay AID463074 (Broad Institute, 2010) are described below.

SMILES strings stand for the structures. Where “and” joins values, the source holds several entries; their conditions need not be identical. Equal values may be shown once. Calls of active or inactive are those of the source.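 The calls were made as follows: active = AC50 no more than tenfold above the top dose tested, or full inhibition at every dose with a flat fit (cut at about 19 µM in these data); inconclusive = flat curve fit with inhibition between 30% and 70%, or poor fit; inactive = AC50 more than tenfold above the top dose tested.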

For the test, the system named is HMLE_sh_eGFP viability, CellTiter-Glo luminescence, 72 h. Nature of the test: cytotoxicity in HMLE control line with eGFP shRNA, dose response, counter-screen for HMLE_sh_ECad selective toxicity project, cell-based, HMLE_sh_eGFP, luminescence (AID 463074;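 also: potency for loss of viability as luminescence drops below DMSO wells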). (In general: A counterscreen serves to expose hits that act by an unwanted route or on another target.)
As to `CC(C)(C)c1ccc(/C=C(\c2nc3ccccc3[nH]2)S(=O)(=O)c2ccccc2)cc1`, the AC50 (as a rule, the concentration at which the activity in the assay is half-maximal) was 1.42 µM. Take `Cc1nn(-c2ccccc2)c2nc(N)c(C#N)c(-c3ccc(C(C)(C)C)cc3)c12`: the AC50 is 3.24 µM. `Cc1ccc(C(C[N+](=O)[O-])n2nc(C)cc2C)cc1` (configuration not stated): the AC50 is 6.74 µM. With `COc1ccc(/C=C/C(=O)c2ccncc2)c2ccccc12`, the AC50 is 10 µM. Consider `O=C(C[C@@H]1C/C=C/CC[C@H](Cc2ccc(F)cc2)C(=O)OC[C@@H](Cc2ccccc2)NC1=O)N[C@H](CO)Cc1ccccc1`, for which the AC50 is 1.56 µM.

Regarding `COc1ccc(/C=C/C(=O)Nc2ccc(C34CC5CC(CC(O)(C5)C3)C4)cc2)cc1OC`, the AC50 is 0.631 µM.

Regarding `CN1CCN(c2ccc(NC(=O)COc3ccc(Cl)cc3Cl)cc2)CC1`, the AC50 was 5.38 µM. In the case of `CCCc1ccc(C(=O)NNc2ccc(F)cc2)cc1`, the AC50 was 1.99 µM. For `CCCCNc1c(-c2ccc(OC)c(SC3CCCCC3)c2)nc2cc(C)ccn12`, the AC50 was 5.29 µM. In the case of `NS(=O)(=O)c1ccc(NC(=O)COC(=O)c2c3c(nc4ccccc24)/C(=C\c2ccc4c(c2)OCO4)CCC3)cc1`, the AC50 is 6.87 µM. On to `CCc1c(C)sc2nc(C(C)C)nc(SCC(=O)N3CCc4ccccc4C3)c12`, for which the AC50 is 4.22 µM. Turning to `COc1cc(OC)cc(-c2cc3ccc(OC)cc3cn2)c1`, the AC50 was 5.43 µM.

On to `CC(C)(C)C1CCC2(CC1)C(C#N)=C(SCC(=O)NC1CCCCC1)NC(=O)C2C#N` (configuration not stated), for which the AC50 was 9.88 µM. With `C/C(=N\NC(=O)c1nnn(-c2nonc2N)c1CN1CCCCC1)c1ccccc1O`, the AC50 is 4.26 µM. With `Cc1ccc(S(=O)(=O)N(C)c2ccc(OCc3cccc(C)c3)cc2)cc1`, the AC50 is 1.99 µM. For the compound `O=C(NCc1ccco1)c1nc2c(nnn2Cc2ccccc2Cl)c(=O)[nH]1`, the AC50 was 1.92 µM. The result for `O=C(Nc1nccs1)c1ccc(COc2ccccc2Br)o1` reads 4.84 µM. As for `Cc1nc(SCc2nc3ccc(C(F)(F)F)cc3[nH]2)c2oc3ccccc3c2n1`, the AC50 was 5.23 µM. On to `Cc1cc(NCCCn2ccnc2)n2nc(C)c(-c3ccc(Cl)cc3)c2n1`, for which the AC50 was 6.46 µM. Regarding `O=C(Cn1ncc(Cl)c(Cl)c1=O)NCC1CCCCC1`, the AC50 is 5.74 µM. In the case of `O=C(NNC1=C(C(=O)C(F)(F)F)CCC1)c1ccc(Br)cc1` it was 3.6 µM; in that of `Cc1ccc(NC2=C(Cl)C(=O)c3ccccc3C2=O)cc1`, 1.95 µM; in that of `Cc1ccc(C(=O)ONc2ccc(N=NC(=O)c3ccccc3O)cc2)cc1`, 3.56 µM. In the case of `CN1CCN(S(=O)(=O)c2cccc(C(=O)Nc3cc(C(F)(F)F)ccc3N3CCCCC3)c2)CC1`, the AC50 was 5.34 µM. Turning to `CN(CCO)c1cc(Sc2nc3ccccc3s2)c2nonc2c1[N+](=O)[O-]`, the AC50 is 2.49 µM. Regarding `COCCNC(=O)NC1(C(F)(F)F)Oc2ccc(Cl)cc2O1` (configuration not stated), the AC50 is 17.6 µM.

As for `O=C1/C(=C\c2cc(Br)cc(Br)c2O)SC(=S)N1Cc1ccccc1`, the AC50 was 0.906 µM. In the case of `O=c1c2ccccc2nc(/C=C/c2ccccc2)n1-c1ccccc1O`, the AC50 is 10.7 µM.

In the case of `CN1CCN(C2Cc3ccccc3Sc3cc(C(F)(F)F)ccc32)CC1` (configuration not stated), the AC50 is 6.9 µM.

For `CC1CCN(CC(CS(=O)(=O)c2ccc([N+](=O)[O-])cc2)N2CCC(C)CC2)CC1` (configuration not stated), the AC50 was 6.58 µM.

Consider `COc1ccccc1-c1sc2ccccc2c1C#CC1(O)CCCCC1`, for which the AC50 is 10.8 µM. Regarding `CCCn1c(SCC#N)nc2c(c1=O)C1(CCCC1)Cc1ccccc1-2`, the AC50 is 1.52 µM.

For `Cc1cc(C)c(C(=O)/C=C/c2ccc(C(C)C)cc2)c(=O)[nH]1`, the AC50 was 10.1 µM. For `COC(=O)c1cc(=O)n(Cc2cccs2)c(=Nc2ccc(F)cc2)s1`, the AC50 is 3.58 µM.

Consider `CC(=O)c1ccc(N2CCC(c3cc(-c4ccc(Cl)cc4Cl)n[nH]3)CC2)c([N+](=O)[O-])c1`, for which the AC50 is 4.17 µM. On to `O=C(Nc1ccc(N2CCN(C(=O)c3cccs3)CC2)cc1)c1ccc([N+](=O)[O-])o1`, for which the AC50 is 1.87 µM.

In the case of `Clc1ccc(Cl)c(OCCCCN2CCNCC2)c1`, the AC50 was 9.58 µM.

For the compound `CCN1CCN(C(=O)c2ccc(CSc3ccc(C)cc3)cc2)CC1`, the AC50 was 0.22 µM. On to `CC1CCN(c2nc(Cl)nc(Nc3ccc([N+](=O)[O-])cc3)n2)CC1`, for which the half-maximal activity concentration (AC50) was 3.41 µM. For the compound `COc1ccc(-c2nc3cnccn3c2NC2CCCCC2)cc1-c1cccc(Cl)c1`, the AC50 was 6.62 µM. In the case of `Cc1ccc(F)c(NC(=O)/C(C#N)=C(\O)c2ccc(C(C)(C)C)cc2)c1` it was 8.58 µM; in that of `CCN(CC)S(=O)(=O)c1ccc(N/N=C/c2cc(OC)ccc2O)nc1`, 3.85 µM; in that of `FC(F)(F)c1nnc(-c2ccccc2)nc1Sc1ccc(Cl)cc1`, 6.48 µM. On to `COc1cc(/C=C(\C#N)C(=O)NC2CCCCC2C)ccc1OS(=O)(=O)c1ccc(C)cc1` (configuration not stated), for which the AC50 was 6.69 µM.

As for `O=C(NCCN1CCCC1)c1ccc2c(c1)N(Cc1cccc(Cl)c1)C(=O)c1ccccc1S2(=O)=O`, the AC50 was > 19.5 µM (inactive). As to `O=c1c(Cl)c(NCc2ccccc2Cl)cnn1C12CC3CC(CC(C3)C1)C2`, the AC50 was 2.43 µM.

On to `CCOC(=O)c1c(NC(=O)c2nn(CC)cc2Br)sc2c1CCCCC2`, for which the AC50 was 1.95 µM. In the case of `CCCc1nc(NC2CCCCC2)c(C#N)c2c1COC(C)(C)C2`, the AC50 was 7.68 µM. Consider `COc1ccc2nc(C)cc(N/N=C/c3ccccc3)c2c1`, for which the AC50 was 7.36 µM. For `FC(F)(F)c1ccc(C2[C@H]3CN(Cc4cccnc4)[C@H](c4ccccc4)C34CC2(c2cccnc2)C4)cc1` (some centres not stated), the AC50 is 3.67 µM. As to `COc1ccc(-c2sc3ccc(OC)cc3c2C#CCCO)cc1`, the AC50 is 7.27 µM. Regarding `O=C/C=C/c1c(-c2ccccc2)cc2oc3ccccc3cc1-2`, the concentration at half-maximal activity (AC50) was 9.18 µM. As for `CCCCNc1c(-c2ccc(-c3cccc(Cl)c3)cc2)nc2ccccn12`, the AC50 was 3.87 µM. As for `CC(C)c1ccc(N2C(=O)NC(=O)/C(=C/C=C/c3ccco3)C2=O)cc1`, the AC50 was 2.29 µM. Take `CCCCN(CCCC)CCC(O)c1cc2c(Cl)cc(Cl)cc2c2cc(C(F)(F)F)ccc12` (configuration not stated): the AC50 is 7.54 µM. Turning to `CN1C(=O)/C(=C/c2cc(N=Nc3ccccc3)ccc2O)SC1=S`, the AC50 was 1.29 µM.

In the case of `CN(Cc1cnc2nc(N)nc(N)c2n1)c1ccc(C(=O)N[C@@H](CCC(=O)O)C(=O)O)cc1`, the AC50 was < 0.16 µM. In the case of `CCCN1CCc2c(sc(NC(=O)c3ccc(S(=O)(=O)N(C)c4ccccc4)cc3)c2C(=O)NC)C1` it was 5.34 µM. With `CC(C)c1cc(-c2cc(-c3ccccc3)on2)nc(NC2CCCC2)n1`, the AC50 was 7.45 µM. `COc1ccc(C(C)NCCC(c2ccc(OC(C)C)cc2)c2ccccc2OC)cc1` (configuration not stated): the AC50 was 5.44 µM. Consider `CCc1ccc(N2C(=O)NC(=O)/C(=C\C=C\c3ccco3)C2=O)cc1`, for which the AC50 was 3.72 µM. With `CCCOC(=O)c1ccc(Oc2c(-c3ccc(OCC)cc3O)n[nH]c2C)cc1`, the concentration at half-maximal activity (AC50) was 4.06 µM.

Take `COc1ccc(NS(=O)(=O)c2ccc3nc(COc4cccc5ccccc45)[nH]c3c2)cc1`: the AC50 is 4.75 µM. The result for `CCCCCCC(C)(C)c1ccc([C@@H]2C[C@H](O)CC[C@H]2CCCO)c(O)c1` reads 3.5 µM; that for `CCCCNc1c(-c2ccc(SC3CCCCC3)c(OC)c2)nc2ccc(C)cn12`, 3.49 µM.

Turning to `O=C(/C(=C/c1cccc(Cl)c1)c1nc2ccccc2[nH]1)c1ccccc1`, the AC50 was 3.35 µM. `Cn1nnnc1Sc1ncnc2scc(Br)c12`: the AC50 is 6.78 µM. Turning to `COc1cc(NC(=O)c2csc(N)n2)cc(C(=O)Nc2cccc(C(F)(F)F)c2)c1`, the half-maximal activity concentration (AC50) was 5.65 µM. `COc1ccccc1-c1cn[nH]c1-c1ccc(OCc2ccccc2F)cc1O`: the concentration at half-maximal activity (AC50) was 6.88 µM.

Consider `CCC(CO)Oc1cc(NCc2ccc(Cl)cc2Cl)c2ncn(C(C)C)c2c1` (configuration not stated), for which the AC50 is 7.64 µM. Consider `O=C(Cn1c2ccccc2c(=O)c2ccccc21)N/N=C/c1ccc(N2CCCC2)c([N+](=O)[O-])c1`, for which the concentration at half-maximal activity (AC50) is 2.43 µM. The result for `Clc1ccc(N/N=C/c2cccnc2)cc1` reads 7.94 µM; that for `N#Cc1c(-c2ccccc2)c(-c2ccccc2)nn(CC(=O)NNC(=O)Nc2ccc(Cl)c(Cl)c2)c1=O`, 3.28 µM. Turning to `CC(C)N(C(=O)CSc1nc2ccccc2n1-c1ccccc1)C(C)C`, the AC50 is 7.62 µM.

With `O=C(Nc1ccc(Cl)cc1)N1CCCN(c2ccc(C(F)(F)F)cc2[N+](=O)[O-])CC1`, the AC50 is 6.57 µM. As to `O=C1C=CC(=O)N1c1ccc(OC(F)F)cc1`, the AC50 was 11.9 µM. Regarding `C[C@H](CO)N1C[C@H](C)[C@@H](CN(C)C(=O)Nc2ccc(C(F)(F)F)cc2)Oc2c(NC(=O)Nc3ccc(C(F)(F)F)cc3)cccc2C1=O`, the AC50 was 4.26 µM. For `COc1ccc(NS(=O)(=O)c2cc(-c3cnc(C4CC4)o3)ccc2C)cc1`, the AC50 was 0.968 µM. Take `CC/C(=C(\c1ccccc1)c1ccc(OCCN(C)C)cc1)c1ccccc1`: the AC50 is 6.69 µM and 6.32 µM. `Sc1nnc(-c2ccc(Cl)cc2)n1Cc1ccccc1`: the AC50 was 8.62 µM. Take `CCCCCCSc1cccc(-c2nc3ccc(C)cn3c2NCc2ccccc2)c1`: the AC50 is 3.37 µM.

Consider `CCN1CCN(c2cc(-c3ccccc3)nc3cc(-c4cccc(F)c4)nn23)CC1`, for which the AC50 is 5.65 µM. As to `Cn1nc(-c2ccc(Cl)cc2)c2cc(C(=O)NCCCN3CCOCC3)sc21`, the AC50 is 5.94 µM. The result for `CC(C)COc1ccc(-c2nn(-c3ccccc3)cc2/C=C2/SC(=S)N(CC(=O)O)C2=O)cc1` reads 4.51 µM. For the compound `Cn1cccc1/C=C1\SC(=S)N(Nc2ccccc2)C1=O`, the AC50 is 2.31 µM. Turning to `Cn1cc([N+](=O)[O-])c(C(=O)Nc2ccc(-c3nc4ccccc4o3)cc2)n1`, the AC50 was 2.33 µM. `C[C@@H]1CN([C@H](C)CO)C(=O)c2cc(NC(=O)Nc3ccc(C(F)(F)F)cc3)ccc2O[C@H]1CN(C)S(=O)(=O)c1ccc(Cl)cc1`: the AC50 was 3.84 µM. `Cc1sc(-n2c(C)cc(/C=C3\SC(=S)NC3=O)c2C)c(C#N)c1C`: the AC50 is 4.72 µM. As to `Cc1ccc(NNC(=O)C(O)(c2cccc(C(F)(F)F)c2)c2cccc(C(F)(F)F)c2)cc1`, the AC50 is 3.29 µM. For the compound `CCN1CCN(CCCNC(=O)c2ccc3c(c2)NC(=O)/C(=C\c2cccc(C)c2)S3)CC1`, the AC50 was 3.62 µM.

Consider `Nc1cc(-c2ccc(OC(F)(F)F)cc2)nn1-c1ccc(Cl)c(Cl)c1`, for which the AC50 was 5.83 µM. As to `CC(C)(C)[C@@H]1CCC(=O)N(CC[C@H](Sc2ccc(Br)cc2)c2ccccc2)CC1`, the AC50 is 3.38 µM.
